# Read-outs that look alike come from different tables or passages of the source.
# How the values were obtained:
# BAEC [1] = assay type: cell-based, bovine; conditions: for Effect on doxorubicin uptake (in words): assay as for C6-SM, Table 1
# Description: (§1) For intracellular doxorubicin measurements, cells were cultured in flat-bottom 96-well plates. At confluence, cells were changed to a serum-free medium and exposed to 50 μM doxorubicin during 60 min (unless indicated otherwise). After washing with ice-cold PBS, cells were lysed in 1% (w v^−1) Triton X-100 in water. Native fluorescence intensities were then measured by a Perkin-Elmer Victor Wallac II fluorescence microplate reader, using λex 485 nm and λem 535 nm filters. Additional probes and drugs that were tested for cellular uptake during 60 min incubations, either in the absence or presence of lipid, were hydrazide-AF488 (35 μM, λex 485 nm, λem 535 nm), sulphorodamine-101 (400 μM, λex 355 nm, λem 620 nm), propidium iodide (300 μM, λex 355 nm, λem 535 nm), o-phtaldialdehyde (1 mM, λex 485 nm, λem 535 nm), topotecan (30 μM, λex 355 nm, λem 535 nm), epirubicin (50 μM, λex 485 nm, λem 535 nm), bisbenzimidine (10 μM, λex 355 nm, λem 460 nm), camptothecin (30 μM, λex 355 nm, λem 460 nm), daunorubicin (25 μM, λex 485 nm, λem 535 nm) and idarubicin (20 μM, λex 485 nm, λem 535 nm).
# BAEC [2] = experiment: Cellular uptake of fluorescent drugs and probes with or without C6-SM; assay type: cell-based, bovine; conditions: 10 μM C6-SM, 60 min
# Description: as §1
# [3] = Lipophilicity: 1-octanol/water partitioning; assay type: physicochemical; conditions: 1-octanol/water partition ratio
# Description: Partitioning of 10–50 μM drug or probe was monitored in a two-phase system consisting of 1 ml 1-octanol and 1 ml water. After addition of the compound, tubes were vortexed and centrifuged (3000 rpm, 5 min, 20°C). Aliquots of both the organic and the aqueous phases were taken for fluorimetric quantification, as described under Cellular drug accumulation. As a measure of lipophilicity, the 1-octanol/water partitioning ratio was calculated for each compound and expressed on a log scale ([Washington et al, 2001]).
molecule,measurement,setting,value
C/C=C/C[C@@H](C)C(=O)[C@H]1C(=O)N[C@@H](C(C)C)C(=O)N(C)CC(=O)N(C)[C@@H](CC(C)C)C(=O)N[C@@H](C(C)C)C(=O)N(C)[C@@H](CC(C)C)C(=O)N[C@@H](C)C(=O)N[C@H](C)C(=O)N(C)[C@@H](CC(C)C)C(=O)N(C)[C@@H](CC(C)C)C(=O)N(C)[C@@H](C(C)C)C(=O)N1C [PSC833],Doxorubicin (% of control±s.d.),"BAEC [1]; Table 2, PSC833 5 μM, no C6-SM",76.0±15.6 % of control
"CCCCCCCCCCCCC/C=C/[C@@H](O)[C@@H](N)COP(=O)([O-])OCC[N+](C)(C)C [Sphingosinephosphorylcholine, sphingosylphosphorylcholine]",Doxorubicin (% of control±s.d.),"BAEC [1]; 10 μM lipid analogue with 50 μM doxorubicin, 60 min, control = no lipid, no ethanol, n=3",143.2±10.0 % of control
same,Effect on doxorubicin uptake (in words),BAEC [1],moderate effect
CC[C@@]1(O)C(=O)OCc2c1cc1n(c2=O)Cc2cc3ccccc3nc2-1 [camptothecin],Sensitivity towards C6-SM uptake enhancement,BAEC [2],mostly insensitive to C6-SM
COc1cccc2c1C(=O)c1c(O)c3c(c(O)c1C2=O)C[C@@](O)(C(C)=O)C[C@@H]3O[C@H]1C[C@H](N)[C@H](O)[C@H](C)O1 [daunorubicin],Lipophilicity compared with doxorubicin,[3],significantly higher
same,Sensitivity towards C6-SM uptake enhancement,BAEC [2],mostly insensitive to C6-SM
COc1cccc2c1C(=O)c1c(O)c3c(c(O)c1C2=O)C[C@@](O)(C(=O)CO)C[C@@H]3O[C@H]1C[C@H](N)[C@@H](O)[C@H](C)O1 [epirubicin],Sensitivity towards C6-SM uptake enhancement,BAEC [2],C6-SM sensitive
CC(=O)[C@]1(O)Cc2c(O)c3c(c(O)c2[C@@H](O[C@H]2C[C@H](N)[C@H](O)[C@H](C)O2)C1)C(=O)c1ccccc1C3=O [idarubicin],Lipophilicity compared with doxorubicin,[3],significantly higher
same,Sensitivity towards C6-SM uptake enhancement,BAEC [2],mostly insensitive to C6-SM
CC[C@@]1(O)C(=O)OCc2c1cc1n(c2=O)Cc2cc3c(CN(C)C)c(O)ccc3nc2-1 [topotecan],Sensitivity towards C6-SM uptake enhancement,BAEC [2],C6-SM sensitive
methyl-β-cyclodextrin [CDX],Doxorubicin (% of control±s.d.),"BAEC [1]; Table 4, CDX 10 mM, 30 min pretreatment, no C6-SM",113.0±28.1 % of control
sphingomyelin [Endogenous SM],Effect on doxorubicin uptake (in words),BAEC [1],does not work

# Reference: publication PMC2410169, “N-hexanoyl-sphingomyelin potentiates in vitro doxorubicin cytotoxicity by enhancing its cellular influx” (British Journal of Cancer, 2004)
